Legend:
[1] = system: MOLM-13 cells; assay: Cellular proliferation assay (alamarBlue) MOLM-13; type: cell-based; settings: Homo sapiens, 96 hours, read-out: Leukaemia MOLM-13 IC50
Procedure: (§1) In accordance with the invention, the ability of the substances to inhibit the proliferation of various cell lines was determined. Cell viability was determined by means of the alamarBlue® reagent (Invitrogen). […] After incubation overnight at 37° C., the fluorescence values were determined (CI values). […] Then the fluorescence values were determined (CO values).
(§2) The substances were investigated in the cell lines in Table 1, which for example represent the stated indications: […]

[2] = system: LAPC-4 cells; assay: Cellular proliferation assay (alamarBlue) LAPC-4; type: cell-based; settings: Homo sapiens, LAPC4, 168 hours, read-out: Prostate LAPC-4 IC50
Procedure: as §1, §2

[3] = system: VCaP cells; assay: Cellular proliferation assay (alamarBlue) VCaP; type: cell-based; settings: Homo sapiens, 168 hours, read-out: Prostate VCaP IC50
Procedure: as §1, §2

[4] = system: MCF-7 cells; assay: Cellular proliferation assay (alamarBlue) MCF-7; type: cell-based; settings: Homo sapiens, MCF7, 96 hours, read-out: Breast MCF-7 IC50
Procedure: as §1, §2

[5] = system: HeLa-MaTu cells; assay: Cellular proliferation assay (alamarBlue) HeLa-MaTu; type: cell-based; settings: 96 hours, read-out: Cervix HeLa-MaTu IC50
Procedure: as §1, §2

[6] = system: B16F10 cells; assay: Cellular proliferation assay (alamarBlue) B16F10; type: cell-based; settings: Mus musculus, B16-F10, 96 hours, read-out: Melanoma B16F10 IC50
Procedure: as §1, §2

[7] = Plasma concentrations from in-vivo tests and PK parameters; set-up: AUC(0-tlast): unit not given here; settings: mouse; for Plasma concentration: 50 mg/kg p.o.; for unbound exposure in comparison with comparative example V1: after single oral administration, by AUC(0-tlast),norm,u; for AUC(0-tlast),norm,u: AUCnorm multiplied by fu; for AUC(0-tlast),norm: dose-normalized; for tlast: last time point with measurable plasma concentration
Procedure: After thawing and shaking, the samples are centrifuged for 20 minutes at 4° C. and approx. 2000×g. An aliquot of the supernatant (approx. 25 μL) is measured by LCMS analysis. If high plasma or tissue levels are expected (>ULOQ, as a rule 5 μM) the precipitated samples are additionally diluted 1:100 with ACN/H2O (80/20, v/v)+internal standard and corresponding aliquots are measured by LCMS. For this, the test substance is added in 5-9 concentrations, corresponding to the determination range of the analytical method, to a control matrix (calibration samples), e.g. 0, 1, 10, 100, 1000, 5000 nM. For this, a portion of solid is weighed and is dissolved in DMSO (as a rule 1 mM stock solution). This stock solution is further diluted 1:10 with DMSO ([…]). Then 1:5 (v/v) ACN+internal standard (soln. A) is added to the calibration samples and processed further as with the plasma samples. The calibration series in solvent takes place similarly to the plasma calibration described. The test substance is in this case prepared in ACN/H2O (50/50, v/v) and then 1:5 (v/v) ACN+internal standard is added to the samples. This series serves for calibration of the diluted samples. The following PK parameters are calculated from these concentration-time profiles obtained: […]
AUC(0-tlast),norm multiplied by the free fraction (fu) of the species investigated.

[8] = In-vivo tolerability in the mouse; set-up: species or system female NMRI nude mice; settings: for MTD / MTD at 5 days: female, NMRI nude, mouse, in vivo, oral; for MTD: once daily, read-out: maximum tolerated treatment dose (MTD), single daily treatment; for MTD at 5 days: twice daily, after 5 days of treatment, read-out: maximum tolerated treatment dose (MTD), twice daily administration; for Drug-induced deaths (day): 3 animals per group; for tolerability at all doses tested: treatment once or twice daily
Procedure: The substances were formulated in NMP/PEG300 (1/9 V/V). They were administered orally, in an amount of 10 ml/kg, once or twice daily for a period of 5 to 7 days to female NMRI nude mice (6-8 weeks old; 3 animals per group). Body weight and mortality of the mice were monitored daily up to the end of the study. Toxicity was defined as follows: ≧10% substance-induced deaths or ≧20% weight loss.

[9] = system: MOLM-13 cells; assay: MOLM-13 acute monocytic leukaemia tumour model; settings: for T/C value: day 3 to day 14, measured on day 14; for activity on tumour growth: significance P<0.05
Procedure: NMRI nude mice were inoculated subcutaneously in the right flank on day 0 with 2×10^6 MOLM-13 cells in 0.1 ml Matrigel. […] Practical example 1 and practical example 2 were dissolved in 40% PEG400, 5% ethanol, 25% Solutol. The substances were administered orally, daily for […] (day 3 to day 14). […] Practical examples 1 and 2 were applied at a daily dose of 200 (highest dose used), 120 or 70 mg/kg.

[10] = B16F10 melanoma tumour model; settings: C57BL/6, mouse, in vivo, po
Procedure: (§3) C57BL/6 mice were inoculated on day 0 with 0.5×10^6 cells in 0.1 ml medium, subcutaneously, in the right flank. […] The substances were administered orally for 10 days (day 2 to day 11). […] Practical example 2 was applied at a dose of 160 or 120 mg/kg.

[11] = system: B16F10 melanoma; assay: B16F10 melanoma tumour model
Procedure: as §3

[12] = oral 50 mg/kg, QD × 5, once daily
[13] = oral 50 mg/kg, QD × 5, twice daily
[14] = oral 100 mg/kg, QD × 5, once daily
[15] = oral 100 mg/kg, QD × 5, twice daily
[16] = oral 200 mg/kg, QD × 5, once daily

Cc1sc2c(c1C)C(c1ccc(Cl)cc1)=N[C@@H](CC(=O)N1CC3(COC3)C1)c1nnc(C)n1-2 [Example 2, 2-[(S)-4-(4-Chlorophenyl)-2,3,9-trimethyl-6H-thieno[3,2-f][1,2,4]triazolo[4,3-a][1,4]diazepin-6-yl]-1-(2-oxa-6-azaspiro[3.3]hept-6-yl)ethan-1-one]
IC50 [1]: 98 nM | IC50 [2]: 43 nM | IC50 [3]: 58 nM | IC50 [4]: 116 nM | IC50 [5]: 202 nM | IC50 [6]: 82 nM | Plasma concentration ([7]; 1 h): 1366.5 ng/mL | Plasma concentration ([7]; 3 h): 2694.4 ng/mL | Plasma concentration ([7]; 6 h): 1111.0 ng/mL | unbound exposure in comparison with comparative example V1 [7]: higher unbound exposure | AUC(0-tlast) ([7]; single oral dose 50 mg/kg): 10 | AUC(0-tlast),norm,u ([7]; single oral dose 50 mg/kg): 0.050 kg·h/L | AUC(0-tlast),norm ([7]; single oral dose 50 mg/kg): 0.20 kg·h/L | tlast ([7]; single oral dose 50 mg/kg): 6.0 h | MTD [8]: ≥ 200 mg/kg | MTD at 5 days [8]: ≥ 100 mg/kg | % maximum body weight change (day) [8, 12]: +5 (6) % | Remarks (tolerability) [8, 12]: tolerated | Drug-induced deaths (day) [8, 12]: 0/3 | % maximum body weight change (day) [8, 13]: +2 (6) % | Remarks (tolerability) [8, 13]: tolerated | Drug-induced deaths (day) [8, 13]: 0/3 | % maximum body weight change (day) [8, 14]: −1 (3) % | Remarks (tolerability) [8, 14]: tolerated | Drug-induced deaths (day) [8, 14]: 0/3 | % maximum body weight change (day) [8, 15]: −3 (5) % | Remarks (tolerability) [8, 15]: HDT tolerated | Drug-induced deaths (day) [8, 15]: 0/3 | % maximum body weight change (day) [8, 16]: +4 (4) % | Remarks (tolerability) [8, 16]: HDT tolerated | Drug-induced deaths (day) [8, 16]: 0/3 | tolerability at all doses tested [8]: well tolerated | T/C value ([9]; 70 mg/kg oral daily): 46% | activity on tumour growth ([9]; 70 mg/kg oral daily): not statistically significant | T/C value ([9]; 120 mg/kg oral daily): 46% | activity on tumour growth ([9]; 120 mg/kg oral daily): not statistically significant | T/C value ([9]; 200 mg/kg oral daily): 23% | activity on tumour growth ([9]; 200 mg/kg oral daily): active | deaths in the treated group ([9]; MOLM-13 tumour model, dose group not stated): one unexplained death | MTD at 10 days [10]: 120 mg/kg | T/C value ([11]; 120 mg/kg (MTD), oral, day 2 to day 11): 27% | weight loss ([11]; 120 mg/kg dose, oral, day 2 to day 11): 2% | weight loss ([11]; 160 mg/kg dose, oral, day 2 to day 11): 5% | mice killed because of weight loss above 20% ([11]; group treated with 70 mg/kg, day 10): one mouse

Cc1sc2c(c1C)C(c1ccc(Cl)cc1)=N[C@@H](CC(=O)N1C3CCC1CC(=O)C3)c1nnc(C)n1-2 [Example 1, 8-{2-[(S)-4-(4-Chlorophenyl)-2,3,9-trimethyl-6H-thieno[3,2-f][1,2,4]triazolo[4,3-a][1,4]diazepin-6-yl]acetyl}-8-azabicyclo[3.2.1]octan-3-one]
IC50 [1]: 91 nM | IC50 [2]: 54 nM | IC50 [3]: 39 nM | IC50 [4]: 146 nM | IC50 [5]: 251 nM | IC50 [6]: 97 nM | concentration at 1 h ([7]; in vivo, po, 100 mg/kg p.o., 1 h): 1470 ng/mL | unbound exposure in comparison with comparative example V1 [7]: higher unbound exposure | AUC(0-tlast) ([7]; single oral dose 100 mg/kg): 4.9 | AUC(0-tlast),norm,u ([7]; single oral dose 100 mg/kg): 0.006 kg·h/L | AUC(0-tlast),norm ([7]; single oral dose 100 mg/kg): 0.05 kg·h/L | tlast ([7]; single oral dose 100 mg/kg): 24 h | concentration at 3 h ([7]; plasma, po, 100 mg/kg p.o., 3 h): 836 ng/mL | concentration at 6 h ([7]; plasma, po, 100 mg/kg p.o., 6 h): 176 ng/mL | concentration at 24 h ([7]; plasma, po, 100 mg/kg p.o., 24 h): 1.56 ng/mL | MTD [8]: ≥ 200 mg/kg | MTD at 5 days [8]: ≥ 100 mg/kg | % maximum body weight change (day) [8, 12]: +7 (6) % | Remarks (tolerability) [8, 12]: tolerated | Drug-induced deaths (day) [8, 12]: 0/3 | % maximum body weight change (day) [8, 13]: +5 (4) % | Remarks (tolerability) [8, 13]: tolerated | Drug-induced deaths (day) [8, 13]: 0/3 | % maximum body weight change (day) [8, 14]: +6 (6) % | Remarks (tolerability) [8, 14]: tolerated | Drug-induced deaths (day) [8, 14]: 0/3 | % maximum body weight change (day) [8, 15]: −1 (6) % | Remarks (tolerability) [8, 15]: HDT tolerated | Drug-induced deaths (day) [8, 15]: 0/3 | % maximum body weight change (day) [8, 16]: +5 (6) % | Remarks (tolerability) [8, 16]: HDT tolerated | Drug-induced deaths (day) [8, 16]: 0/3 | tolerability at all doses tested [8]: well tolerated | T/C value ([9]; 70 mg/kg oral daily): 58% | activity on tumour growth ([9]; 70 mg/kg oral daily): inactive | T/C value ([9]; 120 mg/kg oral daily): 46% | activity on tumour growth ([9]; 120 mg/kg oral daily): showed activity | T/C value ([9]; 200 mg/kg oral daily): 39% | activity on tumour growth ([9]; 200 mg/kg oral daily): inhibited tumour growth

From patent US20140213575A1, “6H-Thieno[3,2-f][1,2,4]triazolo[4,3-a][1,4]diazepines” (BAYER INTELLECTUAL PROPERTY GMBH, priority 2011, published 2014)
